# In paper PMC10317887, “Hypoglycaemia frequency and physiological response after double or triple doses of once-weekly insulin icodec vs once-daily insulin glargine U100 in type 2 diabetes: a randomised crossover trial” (Diabetologia, 2023):
# Like-named read-outs stand apart in the source and are kept apart here.
# Experiments:
# [1] = system: individuals with type 2 diabetes; assay type: in vivo, human; settings: for Mean PGnadir, treatment ratio (95% CI) icodec vs glargine U100 / Mean PGnadir, estimated geometric mean: all participants; for Time to recovery from PGnadir to PG5.5 mmol/l, estimated geometric mean: constant i.v. glucose 5.5 mg kg^−1 min^−1; for Time to recovery from PGnadir to PG5.5 mmol/l, estimated geometric mean / Glucose needed from PGnadir to PG5.5 mmol/l, estimated geometric mean: individuals with PG <3.3 mmol/l at initiation of recovery; for Time to decline from PG5.5 mmol/l to PG3.9 mmol/l, estimated geometric mean: individuals with PG decline to <3.0 mmol/l and/or hypoglycaemia symptoms; for Time to decline from PG5.5 mmol/l to PG3.0 mmol/l, estimated geometric mean: individuals with PG decline to <3.0 mmol/l; for Mean PGnadir in the subgroup analysis: subgroup PGnadir <3.0 mmol/l and/or symptoms
# Description: During the two treatment periods, participants received once-weekly icodec for 6 weeks or once-daily glargine U100 for 11 days in randomised order. […] Treatment periods were separated by 35–49 days of washout following icodec and 4–11 days of washout following glargine U100. Icodec (4200 nmol/ml; Novo Nordisk, Bagsværd, Denmark) was administered s.c. in the left thigh at 20:00 hours by qualified site staff using a NovoPen 4 pen injector (Novo Nordisk). […] At the start of week 1, a one-time additional 100% icodec dose was administered to accelerate time to steady state, followed by a normal dose at week 2, a double dose at week 3 (prior to hypoglycaemia induction), no dose at week 4 (due to the double dose given the week before), a normal dose at week 5, and a triple dose at week 6 (prior to hypoglycaemia induction). Insulin glargine U100 (100 U/ml [600 nmol/ml]; Sanofi, Paris, France) was administered s.c. in the right thigh at 09:00 hours by qualified site staff using a SoloStar pen injector (Sanofi). A normal dose of once-daily glargine U100 was established during run in. Glargine U100 was administered at a normal dose for 3 days followed by a double dose on day 4 (prior to hypoglycaemia induction), no dose on day 5 (due to the double dose given the day before), then a normal dose for 5 days, and a triple dose on day 11 (prior to hypoglycaemia induction).
# Hypoglycaemia induction was carried out during weeks 3 (double dose) and 6 (triple dose) for icodec and on days 4 (double dose) and 11 (triple dose) for glargine U100 while at steady state. To initiate hypoglycaemia induction, participants should not have experienced hypoglycaemia (PG <3.9 mmol/l) within 24 h or have any relevant medical condition that could confound the outcomes or pose unacceptable risk to the participant. Hypoglycaemia induction (Fig. 1b) was initiated at 16:00 hours 2 days after double/triple icodec dosing (44 h post dose) and on the day of double/triple glargine U100 dosing (7 h post dose). These timings were selected since they approximated the expected time of maximum glucose-lowering effect for both insulin products based on pharmacokinetic/pharmacodynamic modelling performed prior to the trial. For 7.5 h prior to hypoglycaemia induction, PG was kept at 5.5 mmol/l by variable i.v. infusion of glucose (20% wt/vol) or human soluble insulin (100 U/ml in 99.6 ml saline [154 mmol/l NaCl]). PG was measured by a Super GL2 Glucose Analyzer (Dr. Müller Gerätebau, Freital, Germany). Insulin infusion was terminated 60 min prior to hypoglycaemia induction at the latest. PG was maintained at 5.5 mmol/l±20% from 60 min to 30 min prior to hypoglycaemia induction and at 5.5 mmol/l±10% during the last 30 min prior to hypoglycaemia induction. Hypoglycaemia induction was initiated by terminating glucose infusion, thereby allowing PG to decline towards the minimum (nadir) PG target level of no less than 2.5 mmol/l. The handling of alternative scenarios, e.g. PGnadir >2.5 mmol/l, slow PG decline towards hypoglycaemia or slow recovery from hypoglycaemia, is described in electronic supplementary material (ESM) Methods. The investigator recorded if the PGnadir was <3.0 mmol/l or ≥3.0 mmol/l with hypoglycaemic symptoms. The PGnadir level was maintained for 15 min by variable i.v. glucose as needed. Subsequently, euglycaemia was restored by constant i.v. glucose (5.5 mg kg^−1 min^−1) until PG was 5.5 mmol/l, which was maintained until the next morning (between 07:00 hours and 09:00 hours) by variable i.v. glucose. During hypoglycaemia induction, participants remained fasted (except for water ad libitum) and stayed in a supine or semi-supine position (except when cognitive tests were performed). Participants stayed at the clinical site for at least 12 h following each hypoglycaemia induction experiment. […]
# glucagon = experiment: Counterregulatory hormone response: plasma glucagon (ELISA); assay type: in vivo, human; settings: for Glucagon at PG3.0 mmol/l, estimated geometric mean / Glucagon at PGnadir, estimated geometric mean: plasma, subgroup
# Description: (§1) Plasma concentrations of glucagon were measured by an enzyme-linked immunosorbent assay (Mercodia AB, Uppsala, Sweden). Plasma concentrations of adrenaline (epinephrine) and noradrenaline (norepinephrine) were measured by liquid chromatography-mass spectrometry (Thermo Fisher Scientific, Dreieich, Germany). Serum concentrations of cortisol and growth hormone were measured by electrochemiluminescent immunoassays (Roche Diagnostics, Mannheim, Germany).
# [2] = system: noradrenaline (norepinephrine); experiment: Counterregulatory hormone response: plasma noradrenaline (LC-MS); assay type: in vivo, human; settings: for Noradrenaline at PG3.0 mmol/l, estimated geometric mean / Noradrenaline at PGnadir, estimated geometric mean: plasma, subgroup
# Description: as §1
# [3] = system: individuals with type 2 diabetes; experiment: Cognitive function: trail making B (TMB) test; settings: for Change in TMB at PG3.0 mmol/l, least-squares mean / Change in TMB at PGnadir, least-squares mean: change from baseline, subgroup
# Description: (§2) Hypoglycaemic response assessments were conducted at predefined PG levels during hypoglycaemia development and recovery (Fig. 1b). Hypoglycaemic symptoms score (HSS), hypoglycaemia awareness, counterregulatory hormones, vital signs and cognitive function tests were assessed at baseline (PG5.5 mmol/l), during hypoglycaemia development (PG3.9 mmol/l and PG3.0 mmol/l) and at PGnadir.
# (§3) Cognitive function was assessed using the trail making B (TMB) test, the digit symbol substitution test (DSST) and the four-choice reaction time (4CRT) test. In the TMB test from the Halstead Reitan Neuropsychological Battery [16, 17], the participant connects 25 circles distributed on a chart in the correct sequence as quickly as possible. The circles contain a number (1–13) or a letter (A–L), and the correct sequence consists of alternating numbers and letters (i.e. 1–A–2–B–3 etc). The test result is the time needed to complete the task correctly. In the DSST, which is a subtest of the Wechsler Adult Intelligence Scale - Revised [18], nine digits are represented by nine different symbols. During 90 s, the participant is requested to write down the appropriate symbol for as many numbers as possible in a given array. The test result is the number of correct responses. […] In 100 cycles, the participant responds by pressing the corresponding position on a keypad. The test result has two components: percentage of correct answers and the mean response time.
# (§4) Changes in HSS, vital signs and cognitive function tests from baseline (PG5.5 mmol/l) to PG3.0 mmol/l and to PGnadir were compared between insulin products at each of the two dose levels using the same approach as described for PGnadir, except that no logarithmic transformation was done and that the baseline value was included as a covariate. Least-squares means, treatment difference and 95% CI were derived.
# [4] = system: individuals with type 2 diabetes; experiment: Cognitive function: four-choice reaction time (4CRT) test; settings: for Change in 4CRT correctness at PG3.0 mmol/l, least-squares mean / Change in 4CRT response time at PG3.0 mmol/l, least-squares mean / Change in 4CRT correctness at PGnadir, least-squares mean / Change in 4CRT response time at PGnadir, least-squares mean: change from baseline, subgroup
# Description: as §2, §3, §4
# [5] = double dose, n=15 icodec, 13 glargine U100
# [6] = double dose, n=20 icodec, 19 glargine U100
# [7] = double dose, n=17 icodec, 15 glargine U100
# [8] = triple dose, n=18 icodec, 22 glargine U100
# [9] = triple dose, n=20 icodec, 29 glargine U100
# [10] = triple dose, n=20 icodec, 28 glargine U100
# [11] = double dose, n=16 icodec, 15 glargine U100
# [12] = triple dose, n=19 icodec, 28 glargine U100
# [13] = double dose, n=18 icodec, 17 glargine U100
# [14] = triple dose, n=20 icodec, 27 glargine U100
substance,measurement,setting,value
insulin icodec,Time to full recovery from hypoglycaemia,"[1]; constant i.v. glucose infusion at 5.5 mg kg^−1 min^−1, double and triple doses",≤ 30 min
same,"Glucose needed from PGnadir to PG5.5 mmol/l, treatment ratio (95% CI) icodec vs glargine U100",[1]; double dose,"1.27 (1.05, 1.53)"
same,"Time to decline from PG5.5 mmol/l to PG3.0 mmol/l, treatment ratio (95% CI) icodec vs glargine U100",[1]; double dose,"0.64 (0.31, 1.33)"
same,"Time to decline from PG5.5 mmol/l to PG3.9 mmol/l, treatment ratio (95% CI) icodec vs glargine U100",[1]; double dose,"0.62 (0.48, 0.78)"
same,"Time to recovery from PGnadir to PG5.5 mmol/l, treatment ratio (95% CI) icodec vs glargine U100",[1]; double dose,"1.34 (1.16, 1.55)"
same,"Mean PGnadir, treatment ratio (95% CI) icodec vs glargine U100",[1]; double dose,"0.97 (0.94, 1.00)"
same,"Mean PGnadir, estimated geometric mean","[1]; double dose, n=43 icodec, 42 glargine U100",3.2 mmol/L
same,"Time to recovery from PGnadir to PG5.5 mmol/l, estimated geometric mean",[1]; [5],28.3 min
same,"Glucose needed from PGnadir to PG5.5 mmol/l, estimated geometric mean",[1]; [5],141 mg/kg
same,"Time to decline from PG5.5 mmol/l to PG3.9 mmol/l, estimated geometric mean",[1]; [6],0.7 h
same,"Time to decline from PG5.5 mmol/l to PG3.0 mmol/l, estimated geometric mean",[1]; [7],2.9 h
same,"Mean PGnadir in the subgroup analysis, treatment ratio [95% CI] icodec vs glargine U100",[1]; double dose,1.01
same,Mean PGnadir in the subgroup analysis,[1]; double dose,2.9 mmol/L
same,"Glucose needed from PGnadir to PG5.5 mmol/l, treatment ratio (95% CI) icodec vs glargine U100",[1]; triple dose,"1.02 (0.83, 1.24)"
same,"Time to decline from PG5.5 mmol/l to PG3.0 mmol/l, treatment ratio (95% CI) icodec vs glargine U100",[1]; triple dose,"1.05 (0.68, 1.64)"
same,"Time to decline from PG5.5 mmol/l to PG3.9 mmol/l, treatment ratio (95% CI) icodec vs glargine U100",[1]; triple dose,"0.90 (0.78, 1.04)"
same,"Time to recovery from PGnadir to PG5.5 mmol/l, treatment ratio (95% CI) icodec vs glargine U100",[1]; triple dose,"1.02 (0.82, 1.28)"
same,"Mean PGnadir, treatment ratio (95% CI) icodec vs glargine U100",[1]; triple dose,"1.07 (1.04, 1.11)"
same,"Mean PGnadir, estimated geometric mean","[1]; triple dose, n=38 icodec, 40 glargine U100",3.1 mmol/L
same,"Time to recovery from PGnadir to PG5.5 mmol/l, estimated geometric mean",[1]; [8],23.8 min
same,"Glucose needed from PGnadir to PG5.5 mmol/l, estimated geometric mean",[1]; [8],116 mg/kg
same,"Time to decline from PG5.5 mmol/l to PG3.9 mmol/l, estimated geometric mean",[1]; [9],0.7 h
same,"Time to decline from PG5.5 mmol/l to PG3.0 mmol/l, estimated geometric mean",[1]; [10],2.4 h
same,"Mean PGnadir in the subgroup analysis, treatment ratio [95% CI] icodec vs glargine U100",[1]; triple dose,1.05
same,Mean PGnadir in the subgroup analysis,[1]; triple dose,2.9 mmol/L
same,"Glucagon at PG3.0 mmol/l, treatment ratio (95% CI) icodec vs glargine U100",glucagon; double dose,"0.83 (0.59, 1.16)"
same,"Glucagon at PGnadir, treatment ratio (95% CI) icodec vs glargine U100",glucagon; double dose,"0.92 (0.69, 1.23)"
same,"Glucagon at PG3.0 mmol/l, estimated geometric mean",glucagon; [7],39.6 ng/L
same,"Glucagon at PGnadir, estimated geometric mean","glucagon; double dose, n=19 icodec, 19 glargine U100",48.9 ng/L
same,"Glucagon at PGnadir, treatment ratio (95% CI) icodec vs glargine U100",glucagon; triple dose,"1.01 (0.74, 1.38)"
same,"Glucagon at PG3.0 mmol/l, treatment ratio (95% CI) icodec vs glargine U100","glucagon; triple dose, listed as Insulin icodec","1.07 (0.86, 1.33)"
same,"Glucagon at PG3.0 mmol/l, treatment ratio (95% CI) icodec vs glargine U100","glucagon; triple dose, listed as icodec",1.07
same,"Glucagon at PG3.0 mmol/l, estimated geometric mean",glucagon; [10],55.2 ng/L
same,"Glucagon at PGnadir, estimated geometric mean",glucagon; [9],59.8 ng/L
same,"Noradrenaline at PG3.0 mmol/l, treatment ratio (95% CI) icodec vs glargine U100",[2]; double dose,"1.12 (0.83, 1.50)"
same,"Noradrenaline at PGnadir, treatment ratio (95% CI) icodec vs glargine U100",[2]; double dose,"1.19 (0.91, 1.55)"
same,"Noradrenaline at PG3.0 mmol/l, estimated geometric mean",[2]; [7],952.7 pmol/L
same,"Noradrenaline at PGnadir, estimated geometric mean",[2]; [6],1078.0 pmol/L
same,"Noradrenaline at PG3.0 mmol/l, treatment ratio (95% CI) icodec vs glargine U100",[2]; triple dose,1.26
same,"Noradrenaline at PGnadir, treatment ratio (95% CI) icodec vs glargine U100",[2]; triple dose,"1.05 (0.79, 1.40)"
same,"Noradrenaline at PG3.0 mmol/l, estimated geometric mean",[2]; [10],1058.4 pmol/L
same,"Noradrenaline at PGnadir, estimated geometric mean",[2]; [9],934.1 pmol/L
same,"Change in TMB at PG3.0 mmol/l, treatment difference (95% CI) icodec vs glargine U100",[3]; double dose,"0.4 (-0.3, 1.0)"
same,"Change in TMB at PGnadir, treatment difference (95% CI) icodec vs glargine U100",[3]; double dose,"0.3 (-0.2, 0.9)"
same,"Change in TMB at PG3.0 mmol/l, least-squares mean",[3]; [11],0.3 s
same,"Change in TMB at PGnadir, least-squares mean","[3]; double dose, n=18 icodec, 18 glargine U100",0.3 s
same,"Change in TMB at PG3.0 mmol/l, treatment difference (95% CI) icodec vs glargine U100",[3]; triple dose,"-0.1 (-0.4, 0.2)"
same,"Change in TMB at PGnadir, treatment difference (95% CI) icodec vs glargine U100",[3]; triple dose,"-0.1 (-0.3, 0.1)"
same,"Change in TMB at PGnadir, least-squares mean",[3]; [12],-0.0 s
same,"Change in TMB at PG3.0 mmol/l, least-squares mean","[3]; triple dose, n=20 icodec, 26 glargine U100",-0.0 s
same,"Change in 4CRT correctness at PG3.0 mmol/l, treatment difference (95% CI) icodec vs glargine U100",[4]; double dose,"0.2 (-1.1, 1.4)"
same,"Change in 4CRT correctness at PGnadir, treatment difference (95% CI) icodec vs glargine U100",[4]; double dose,"-0.2 (-1.3, 0.9)"
same,"Change in 4CRT response time at PG3.0 mmol/l, treatment difference (95% CI) icodec vs glargine U100",[4]; double dose,"-79.7 (-170.4, 10.9)"
same,"Change in 4CRT response time at PGnadir, treatment difference (95% CI) icodec vs glargine U100",[4]; double dose,"-97.1 (-230.5, 36.3)"
same,"Change in 4CRT correctness at PG3.0 mmol/l, least-squares mean",[4]; [11],0.1 %-points
same,"Change in 4CRT response time at PG3.0 mmol/l, least-squares mean",[4]; [11],19.7 ms
same,"Change in 4CRT correctness at PGnadir, least-squares mean",[4]; [13],-0.3 %-points
same,"Change in 4CRT response time at PGnadir, least-squares mean",[4]; [13],40.4 ms
same,"Change in 4CRT correctness at PG3.0 mmol/l, treatment difference (95% CI) icodec vs glargine U100",[4]; triple dose,"0.1 (-0.7, 0.9)"
same,"Change in 4CRT correctness at PGnadir, treatment difference (95% CI) icodec vs glargine U100",[4]; triple dose,"0.4 (-0.9, 1.7)"
same,"Change in 4CRT response time at PG3.0 mmol/l, treatment difference (95% CI) icodec vs glargine U100",[4]; triple dose,"11.8 (-44.0, 67.6)"
same,"Change in 4CRT response time at PGnadir, treatment difference (95% CI) icodec vs glargine U100",[4]; triple dose,"-66.7 (-155.8, 22.4)"
same,"Change in 4CRT correctness at PGnadir, least-squares mean",[4]; [12],-0.3 %-points
same,"Change in 4CRT response time at PGnadir, least-squares mean",[4]; [12],21.3 ms
same,"Change in 4CRT correctness at PG3.0 mmol/l, least-squares mean",[4]; [14],-0.3 %-points
same,"Change in 4CRT response time at PG3.0 mmol/l, least-squares mean",[4]; [14],55.4 ms
